Test results reported in US9399626B2, “2-thiopyrimidinones” (Pfizer Inc., priority 2011, dated 2016).
Where a name gives a salt, the structure may show the parent alone.

Each compound was assayed against T1, MPO (purified from human polynuclear leukocytes) (Homo sapiens, UniProt P05164) (assay: MPO Amplex Red Activity Assay). Details: Table 1, 2 μM H2O2, pH 7.4.
T1 construct: purified from human polynuclear leukocytes; purchased Calbiochem/EMD Biosciences; host or cells: human polynuclear leukocytes (natural source)
T1 sequence (P05164 279-745 limits assumed): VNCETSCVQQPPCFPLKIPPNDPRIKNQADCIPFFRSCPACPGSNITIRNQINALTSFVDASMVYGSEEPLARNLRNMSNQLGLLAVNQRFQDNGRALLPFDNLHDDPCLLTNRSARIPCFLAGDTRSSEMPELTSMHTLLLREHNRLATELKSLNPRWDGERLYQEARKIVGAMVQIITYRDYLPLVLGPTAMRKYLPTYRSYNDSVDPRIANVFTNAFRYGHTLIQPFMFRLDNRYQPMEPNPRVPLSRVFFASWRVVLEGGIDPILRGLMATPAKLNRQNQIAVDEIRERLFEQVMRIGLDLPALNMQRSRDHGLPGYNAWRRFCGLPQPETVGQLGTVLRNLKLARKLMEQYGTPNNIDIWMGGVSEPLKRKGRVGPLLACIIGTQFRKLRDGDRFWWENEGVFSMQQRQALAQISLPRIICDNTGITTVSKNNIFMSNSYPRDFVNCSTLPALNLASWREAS
T1 sequence (P05164 165-273 limits assumed): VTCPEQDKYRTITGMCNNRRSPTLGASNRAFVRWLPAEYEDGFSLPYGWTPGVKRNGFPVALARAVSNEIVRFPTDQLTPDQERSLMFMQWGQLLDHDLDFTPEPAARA
Type: biochemical
Description: MPO Amplex Red Activity Assay.
MPO peroxidase activity was measured by monitoring the formation of resorufin generated from the oxidation of Amplex Red (10-Acetyl-3,7-dihydroxyphenoxazine) (Invitrogen, Carlsbad, Calif.) by MPO (Gomes, Fernandes et al. 2005). Assay mixtures (100 μL total volume) contained 50 mM NaPi pH 7.4, 150 mM NaCl, 1 mM DTPA (diethylenetriaminepentaacetic acid), 2% DMSO, 2 μM H2O2, 30 μM Amplex Red and the reaction was initiated by the addition of […] (purified from human polynuclear leukocytes and purchased from Calbiochem/EMD Biosciences, Gibbstown, N.J.). All assays were performed in 96-well, half-area, black, nonbinding surface, polystyrene plates (Corning) and the production of resorufin (excitation 530 nm, emission 580 nm) was monitored every 20 sec on a Spectramax M2 Microplate Spectrophotometer (Molecular Devices, Palo Alto, Calif.) equipped with Softmax Pro software (Molecular Devices, Palo Alto, Calif.). Reactions to determine the background reaction rate consisted of all assay components and 4 μL of 500 unit/mL bovine catalase (Sigma) in 50 mM KPi pH 7.0. The background rate was subtracted from each reaction progress curve. All data was analyzed using non-linear regression analysis in Microsoft Excel and Kaleidagraph (Synergy Software).
To determine inhibitor potency (kinact/KI) against MPO, the first 600 sec of the reaction progress curves were fit to equation 1, where Vo is the initial rate in RFU/sec and t is time in seconds, to obtain the first order rate constant for enzyme inactivation (kobs) at each inhibitor concentration.
[formula] Equation 1 is a variation of the standard equation for slow binding inhibition where the steady state velocity (Vs) is set to zero. Each kobs value was corrected for auto-inactivation of the enzyme by subtracting the kobs value for the uninhibited reaction. The corrected kobs values were then plotted versus inhibitor concentration ([I]) and fit to equation 2
[formula] where kinact is the maximal rate of inactivation and KI is the inhibitor concentration that yields half the rate of maximal inactivation (Copeland 2005).
Table 1 and (1A) below provides the myeloperoxidase inhibitory activity for the Examples below in accordance with the above-described assay.

Row | SMILES | MPO kinact/Ki
1 | O=c1cc(-c2ccccc2OC(F)(F)F)n(CCO)c(=S)[nH]1 [Example 186, 1-(2-hydroxyethyl)-2-thioxo-6-[2-(trifluoromethoxy)phenyl]-2,3-dihydropyrimidin-4(1H)-one] | 3930 1/s per M
2 | COc1ccc(C)cc1-c1cc(=O)[nH]c(=S)n1CCN [Example 159, 1-(2-aminoethyl)-6-(2-methoxy-5-methylphenyl)-2-thioxo-2,3-dihydropyrimidin-4(1H)-one hydrochloride] | 11400 1/s per M
3 | COCCn1c(-c2ccc(N(C)C)nc2)cc(=O)[nH]c1=S [Example 165, 6-[6-(dimethylamino)pyridin-3-yl]-1-(2-methoxyethyl)-2-thioxo-2,3-dihydropyrimidin-4(1H)-one] | 1280 1/s per M
4 | COCCn1c(-c2cnc(N(C)C)nc2)cc(=O)[nH]c1=S [Example 314, 2′-(dimethylamino)-3-(2-methoxyethyl)-2-thioxo-2,3-dihydro-4,5′-bipyrimidin-6(1H)-one] | 429 1/s per M
5 | COc1ccc(-c2cc(=O)[nH]c(=S)n2CCOC(C)C)c(OC)c1 [Example 226, 6-(2,4-dimethoxyphenyl)-1-(2-isopropoxyethyl)-2-thioxo-2,3-dihydropyrimidin-4(1H)-one] | 6280 1/s per M
6 | COCCn1c(-c2ccccc2OC)cc(=O)[nH]c1=S [Example 160, 1-(2-methoxyethyl)-6-(2-methoxyphenyl)-2-thioxo-2,3-dihydropyrimidin-4(1H)-one] | 7540 1/s per M
7 | COc1cc(OC)c(-c2cc(=O)[nH]c(=S)n2CCN)cc1C [Example 81, 1-(2-aminoethyl)-6-(2,4-dimethoxy-5-methylphenyl)-2-thioxo-2,3-dihydropyrimidin-4(1H)-one hydrochloride] | 24300 1/s per M
8 | COCCn1c(-c2cccnc2)cc(=O)[nH]c1=S [Example 279, 1-(2-methoxyethyl)-6-pyridin-3-yl-2-thioxo-2,3-dihydropyrimidin-4(1H)-one] | 386 1/s per M
9 | COc1ccc(Cl)cc1-c1cc(=O)[nH]c(=S)n1CCCN [Example 92, 1-(3-aminopropyl)-6-(5-chloro-2-methoxyphenyl)-2-thioxo-2,3-dihydropyrimidin-4(1H)-one hydrochloride] | 22100 1/s per M
10 | COCCn1c(-c2cc(C#N)ccc2OC)cc(=O)[nH]c1=S [Example 171, 4-methoxy-3-[3-(2-methoxyethyl)-6-oxo-2-thioxo-1,2,3,6-tetrahydropyrimidin-4-yl]benzonitrile] | 8590 1/s per M

Now from value to compound:

Row | MPO kinact/Ki | SMILES
11 | 4830 1/s per M | NCCn1c(-c2cccc(Br)c2)cc(=O)[nH]c1=S [Example 183, 1-(2-aminoethyl)-6-(3-bromophenyl)-2-thioxo-2,3-dihydropyrimidin-4(1H)-one hydrochloride]
12 | 3780 1/s per M | COc1ccc(Cl)cc1-c1cc(=O)[nH]c(=S)n1C[C@@H]1CCCN1 [Example 123, 6-(5-chloro-2-methoxyphenyl)-1-[(2S)-pyrrolidin-2-ylmethyl]-2-thioxo-2,3-dihydropyrimidin-4(1H)-one hydrochloride]
13 | 14100 1/s per M | COc1ccc(-c2cc(=O)[nH]c(=S)n2CCCCCN)c(OC)c1 [Example 218, 1-(5-aminopentyl)-6-(2,4-dimethoxyphenyl)-2-thioxo-2,3-dihydropyrimidin-4(1H)-one hydrochloride]
14 | 2040 1/s per M | COCCn1c(-c2nc3ccccc3s2)cc(=O)[nH]c1=S [Example 75, 6-(1,3-benzothiazol-2-yl)-1-(2-methoxyethyl)-2-thioxo-2,3-dihydropyrimidin-4(1H)-one]
15 | 14900 1/s per M | COc1cc2ccccc2cc1-c1cc(=O)[nH]c(=S)n1CC(N)=O [Example 112, 2-[6-(3-methoxy-2-naphthyl)-4-oxo-2-thioxo-3,4-dihydropyrimidin-1(2H)-yl]acetamide]
16 | 1810 1/s per M | COCCn1c(-c2cccc(OC)c2)cc(=O)[nH]c1=S [Example 293, 1-(2-methoxyethyl)-6-(3-methoxyphenyl)-2-thioxo-2,3-dihydropyrimidin-4(1H)-one]
17 | 22800 1/s per M | COc1ccc(-c2cc(=O)[nH]c(=S)n2CCO)c2ccccc12 [Example 274, 1-(2-hydroxyethyl)-6-(4-methoxy-1-naphthyl)-2-thioxo-2,3-dihydropyrimidin-4(1H)-one]
18 | 7510 1/s per M | COc1ccc(-c2cc(=O)[nH]c(=S)n2CCNC2=NCCN2)c(OC)c1 [Example 250, 1-[2-(4,5-dihydro-1H-imidazol-2-ylamino)ethyl]-6-(2,4-dimethoxyphenyl)-2-thioxo-2,3-dihydropyrimidin-4(1H)-one]
19 | 7940 1/s per M | COc1ncc(Cl)cc1-c1cc(=O)[nH]c(=S)n1CCO [Example 65, 6-(5-chloro-2-methoxypyridin-3-yl)-1-(2-hydroxyethyl)-2-thioxo-2,3-dihydropyrimidin-4(1H)-one]
20 | 2690 1/s per M | COc1ccc(-c2cc(=O)[nH]c(=S)n2CC2CCNCC2)c(OC)c1 [Example 235, 6-(2,4-dimethoxyphenyl)-1-(piperidin-4-ylmethyl)-2-thioxo-2,3-dihydropyrimidin-4(1H)-one hydrochloride]
21 | 5630 1/s per M | COc1ccc(-c2cc(=O)[nH]c(=S)n2CC(=O)NCC(N)=O)c(OC)c1 [Example 254, N~2~-{[6-(2,4-dimethoxyphenyl)-4-oxo-2-thioxo-3,4-dihydropyrimidin-1(2H)-yl]acetyl}glycinamide]
22 | 4350 1/s per M | COc1ccc(-c2cc(=O)[nH]c(=S)n2CC(O)CO)c(OC)c1 (stereo not drawn) [Example 201, 1-(2,3-dihydroxypropyl)-6-(2,4-dimethoxyphenyl)-2-thioxo-2,3-dihydropyrimidin-4(1H)-one]
23 | 6070 1/s per M | O=c1cc(-c2cccc3ncsc23)n(CCO)c(=S)[nH]1 [Example 42, 6-(1,3-benzothiazol-7-yl)-1-(2-hydroxyethyl)-2-thioxo-2,3-dihydropyrimidin-4(1H)-one]
24 | 1910 1/s per M | COCCn1c(-c2ccc(OC)cc2)cc(=O)[nH]c1=S [Example 294, 1-(2-methoxyethyl)-6-(4-methoxyphenyl)-2-thioxo-2,3-dihydropyrimidin-4(1H)-one]
25 | 968 1/s per M | COCCn1c(-c2ccc(OC(F)(F)F)cc2)cc(=O)[nH]c1=S [Example 210, 1-(2-methoxyethyl)-2-thioxo-6-[4-(trifluoromethoxy)phenyl]-2,3-dihydropyrimidin-4(1H)-one]
26 | 817 1/s per M | COCCn1c(-c2cc(OC)c(OC)c(OC)c2)cc(=O)[nH]c1=S [Example 342, 1-(2-methoxyethyl)-2-thioxo-6-(3,4,5-trimethoxyphenyl)-2,3-dihydropyrimidin-4(1H)-one]
27 | 1460 1/s per M | COc1ccc(-c2cc(=O)[nH]c(=S)n2CC2CCCN2C(=N)N)c(OC)c1 (stereo not drawn) [Example 258, 2-{[6-(2,4-dimethoxyphenyl)-4-oxo-2-thioxo-3,4-dihydropyrimidin-1(2H)-yl]methyl}pyrrolidine-1-carboximidamide trifluoroacetate]
28 | 5890 1/s per M | COCCn1c(-c2cc(F)ccc2OC(F)(F)F)cc(=O)[nH]c1=S [Example 346]

Same assay, conditions: Table 1A, 2 μM H2O2, pH 7.4

Row | MPO kinact/Ki | SMILES
29 | 2660 1/s per M | COc1ccc(Cl)cc1-c1cc(=O)[nH]c(=S)n1C[C@H](O)CO [Example 359, 6-(5-chloro-2-methoxyphenyl)-1-[(2S)-2,3-dihydroxypropyl]-2-thioxo-2,3-dihydropyrimidin-4(1H)-one]
30 | 6980 1/s per M | COc1ccc(-c2cc(=O)[nH]c(=S)n2CC(=O)NC[C@@H](C)N)c(OC)c1 [Example 395, N-[(2R)-2-aminopropyl]-2-[6-(2,4-dimethoxyphenyl)-4-oxo-2-thioxo-3,4-dihydropyrimidin-1(2H)-yl]acetamide]
31 | 12000 1/s per M | CCNC(=N)NCCCn1c(-c2cc(Cl)ccc2OC)cc(=O)[nH]c1=S [Example 449, 1-{3-[6-(5-chloro-2-methoxyphenyl)-4-oxo-2-thioxo-3,4-dihydropyrimidin-1(2H)-yl]propyl}-2-ethylguanidine]
32 | 1410 1/s per M | COc1ccc(-c2cc(=O)[nH]c(=S)n2CC(=O)NC(C)(C)CN)c(OC)c1 [Example 432, N-(1-amino-2-methylpropan-2-yl)-2-[6-(2,4-dimethoxyphenyl)-4-oxo-2-thioxo-3,4-dihydropyrimidin-1(2H)-yl]acetamide]
33 | 11300 1/s per M | COc1ccc(F)cc1-c1cc(=O)[nH]c(=S)n1CCCN(C)C(=N)N [Example 375, 1-{3-[6-(5-fluoro-2-methoxyphenyl)-4-oxo-2-thioxo-3,4-dihydropyrimidin-1(2H)yl]propyl}-1-methylguanidine]
